Target: T1, human GHS-R 1a (Homo sapiens, UniProt Q92847)
T1 construct: expressed in transfected cells; host or cells: LLC PK-1 porcine renal epithelial cells (ECACC No. 86121112), isolated plasma membranes
Assay: GHS-R 1a receptor-ligand binding assay (membrane preparations from transfected LLC PK-1 cells)
Conditions: displacement of 125I-His9-ghrelin (60 pM); membranes of LLC PK-1 cells transfected with human GHS-R 1a; mean of at least two independent experiments in triplicates
Method: (J. Med. […] Med. Chem. 2003, 46: 1191-1203), were incubated in homogenization buffer HB [50 mM Tris (pH 7.3), 5 mM MgCl2, 2.5 mM EDTA, and 30 μg/mL bacitracin (Sigma)] for 60 min at 25° C. (steady-state conditions) with 60 pM ^125I-[…]-ghrelin (Amersham) in the presence or absence of competing compounds (compounds of the invention). […] Nonspecific binding was defined using an excess (10^-6 M) of ghrelin. The binding reaction was stopped by addition of 4 mL of ice-cold HB followed by rapid filtration over Whatman GP/C filters presoaked with 0.5% polyethyleneimine to prevent excessive binding of radioligand to the filters. […] IC50 values given are the mean of at least two independent experiments performed in triplicates.

T1 sequence (Q92847 whole entry): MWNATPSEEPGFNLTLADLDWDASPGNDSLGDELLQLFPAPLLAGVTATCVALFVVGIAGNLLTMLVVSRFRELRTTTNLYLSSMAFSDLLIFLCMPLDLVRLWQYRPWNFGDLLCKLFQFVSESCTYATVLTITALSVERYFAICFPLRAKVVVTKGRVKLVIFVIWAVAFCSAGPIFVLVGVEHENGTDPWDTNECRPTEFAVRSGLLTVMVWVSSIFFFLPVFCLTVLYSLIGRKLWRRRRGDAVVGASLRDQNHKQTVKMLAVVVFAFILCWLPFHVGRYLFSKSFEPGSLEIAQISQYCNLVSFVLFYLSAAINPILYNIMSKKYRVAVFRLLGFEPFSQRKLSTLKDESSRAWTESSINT

| Structure (SMILES) | IC50 |
| --- | --- |
| COc1ccc(Cn2c(CCc3ccccc3)nnc2[C@@H](Cc2c[nH]c3ccccc23)NC(=O)CCN)cc1 [compound 56, (R)—N-(1-(4-(4-methoxybenzyl)-5-phenethyl-4H-1,2,4-triazol-3-yl)-2-(1H-indol-3-yl)ethyl)-3-aminopropanamide] | 59 nM |
| CCc1ccc(-n2c(CCc3c[nH]c4ccccc34)nnc2[C@@H](Cc2c[nH]c3ccccc23)NC(=O)Cc2ccccn2)cc1 [compound 148, N—((R)-1-(5-(2-(1H-indol-3-yl)ethyl)-4-(4-ethylphenyl)-4H-1,2,4-triazol-3-yl)-2-(1H-indol-3-yl)ethyl)-2-(pyridin-2-yl)acetamide] | 96 nM |
| COc1ccc(Cn2c(CCc3ccccc3)nnc2[C@@H](Cc2c[nH]c3ccccc23)NC(=O)CN)c(OC)c1 [compound 75, (R)—N-(1-(4-(2,4-dimethoxybenzyl)-5-phenethyl-4H-1,2,4-triazol-3-yl)-2-(1H-indol-3-yl)ethyl)-2-aminoacetamide] | 140 nM |
| COc1ccc(Cn2c(CCc3c[nH]c4ccccc34)nnc2[C@@H](Cc2c[nH]c3ccccc23)NC(=O)CN)cc1 [compound 152, N—((R)-1-(5-(2-(1H-indol-3-yl)ethyl)-4-(4-methoxybenzyl)-4H-1,2,4-triazol-3-yl)-2-(1H-indol-3-yl)ethyl)-2-aminoacetamide] | 138 nM |
| COc1cccc(Cn2c(Cc3ccccc3)nnc2[C@@H](Cc2c[nH]c3ccccc23)NC(=O)C(C)(C)N)c1 [compound 7, (R)—N-(1-(4-(3-methoxybenzyl)-5-benzyl-4H-1,2,4-triazol-3-yl)-2-(1H-indol-3-yl)ethyl)-2-amino-2-methylpropanamide] | 120 nM |
| CCCCCCn1c(CCc2c[nH]c3ccccc23)nnc1[C@@H](Cc1c[nH]c2ccccc12)NC(=O)C(C)(C)N [compound 15, (R)—N-(1-(5-(2-(1H-indol-3-yl)ethyl)-4-hexyl-4H-1,2,4-triazol-3-yl)-2-(1H-indol-3-yl)ethyl)-2-amino-2-methylpropanamide] | 120 nM |
| COc1ccc(Cn2c(CCc3c[nH]c4ccccc34)nnc2[C@H](Cc2c[nH]c3ccccc23)NC(=O)C(C)(C)N)c(OC)c1 [compound 18, (S)—N-(1-(5-(2-(1H-indol-3-yl)ethyl)-4-(2,4-dimethoxybenzyl)-4H-1,2,4-triazol-3-yl)-2-(1H-indol-3-yl)ethyl)-2-amino-2-methylpropanamide] | 83 nM |
| COc1ccc(Cn2c(CCc3ccccc3)nnc2[C@@H](Cc2c[nH]c3ccccc23)NC(=O)[C@@H](N)Cc2ccccc2)cc1 [compound 186, (2S)—N—((R)-1-(4-(4-methoxybenzyl)-5-phenethyl-4H-1,2,4-triazol-3-yl)-2-(1H-indol-3-yl)ethyl)-2-amino-3-phenylpropanamide] | 175 nM |
| CC(C)(C)Sc1nnc([C@@H](COCc2ccccc2)NC(=O)C(C)(C)N)n1Cc1ccccc1 [Example 8 from WO 00/54729 A2, (S)—N-(1-(4-benzyl-5-(tert-butylthio)-1,2,4-triazol-3-yl)-2-(benzyloxy)ethyl)-2-amino-2-methylpropanamide, reference compound] | ~20000 nM |
| COc1ccc(Cn2c(CCc3c[nH]c4ccccc34)nnc2[C@@H](Cc2c[nH]c3ccccc23)NC(=O)C2CCCCN2)c(OC)c1 (stereo partly drawn) [compound 36, (R)—N-(1-(5-(2-(1H-indol-3-yl)ethyl)-4-(2,4-dimethoxybenzyl)-4H-1,2,4-triazol-3-yl)-2-(1H-indol-3-yl)ethyl)piperidine-2-carboxamide] | 53 nM |
| O=C(N[C@H](Cc1c[nH]c2ccccc12)c1nnc(CCc2ccccc2)n1Cc1cccs1)C1CCNCC1 [compound 94, (R)—N-(2-(1H-indol-3-yl)-1-(5-phenethyl-4-(thiophen-2-ylmethyl)-4H-1,2,4-triazol-3-yl)ethyl)piperidine-4-carboxamide] | 255 nM |
| CCc1ccc(-n2c(CCc3c[nH]c4ccccc34)nnc2[C@@H](Cc2c[nH]c3ccccc23)NC(=O)c2ccccn2)cc1 [compound 147, N—((R)-1-(5-(2-(1H-indol-3-yl)ethyl)-4-(4-ethylphenyl)-4H-1,2,4-triazol-3-yl)-2-(1H-indol-3-yl)ethyl)picolinamide] | 49 nM |
| O=C(N[C@H](Cc1c[nH]c2ccccc12)c1nnc(CCc2ccccc2)n1-c1ccccc1)c1ccccn1 [compound 146, N—((R)-2-(1H-indol-3-yl)-1-(5-phenethyl-4-phenyl-4H-1,2,4-triazol-3-yl)ethyl)picolinamide] | 105 nM |
| CCCCCCn1c(CCCc2c[nH]c3ccccc23)nnc1[C@@H](Cc1c[nH]c2ccccc12)NC(=O)C(C)(C)N [compound 16, (R)—N-(1-(5-(3-(1H-indol-3-yl)propyl)-4-hexyl-4H-1,2,4-triazol-3-yl)-2-(1H-indol-3-yl)ethyl)-2-amino-2-methylpropanamide] | 240 nM |
| CC(C)(N)C(=O)N[C@H](Cc1c[nH]c2ccccc12)c1nnc(CCCc2c[nH]c3ccccc23)n1Cc1ccc(Br)cc1 [compound 14, (R)—N-(1-(5-(3-(1H-indol-3-yl)propyl)-4-(4-bromobenzyl)-4H-1,2,4-triazol-3-yl)-2-(1H-indol-3-yl)ethyl)-2-amino-2-methylpropanamide] | 150 nM |
| COc1ccc(Cn2c(CCc3ccccc3)nnc2[C@@H](Cc2c[nH]c3ccccc23)NC(=O)CCc2cccnc2)cc1 [compound 59, (R)—N-(1-(4-(4-methoxybenzyl)-5-phenethyl-4H-1,2,4-triazol-3-yl)-2-(1H-indol-3-yl)ethyl)-3-(pyridin-3-yl)propanamide] | 173 nM |
| O=C(N[C@H](Cc1c[nH]c2ccccc12)c1nnc(CCc2c[nH]c3ccccc23)n1-c1ccccc1)C1CCNCC1 [compound 158, N—((R)-1-(5-(2-(1H-indol-3-yl)ethyl)-4-phenyl-4H-1,2,4-triazol-3-yl)-2-(1H-indol-3-yl)ethyl)piperidine-4-carboxamide] | 70 nM |

Stronger by IC50, values ahead:

| IC50 | Structure (SMILES) |
| --- | --- |
| 44 nM | CCc1ccc(Cn2c(CCc3ccccc3)nnc2[C@@H](Cc2c[nH]c3ccccc23)NC(=O)C(C)(C)N)cc1 [compound 43, (R)—N-(1-(4-(4-ethylbenzyl)-5-phenethyl-4H-1,2,4-triazol-3-yl)-2-(1H-indol-3-yl)ethyl)-2-amino-2-methylpropanamide] |
| 38 nM | COc1ccc(Cn2c(CCc3c[nH]c4ccccc34)nnc2[C@@H](Cc2c[nH]c3ccccc23)NC(=O)CN)c(OC)c1 [compound 69, (R)—N-(1-(5-(2-(1H-indol-3-yl)ethyl)-4-(2,4-dimethoxybenzyl)-4H-1,2,4-triazol-3-yl)-2-(1H-indol-3-yl)ethyl)-2-aminoacetamide] |
| 37 nM | COc1ccc(Cn2c(CCCc3c[nH]c4ccccc34)nnc2[C@@H](Cc2c[nH]c3ccccc23)NC(=O)C(C)(C)N)cc1 [compound 23, (R)—N-(1-(5-(3-(1H-indol-3-yl)propyl)-4-(4-methoxybenzyl)-4H-1,2,4-triazol-3-yl)-2-(1H-indol-3-yl)ethyl)-2-amino-2-methylpropanamide] |
| 35 nM | O=C(N[C@H](Cc1c[nH]c2ccccc12)c1nnc(CCc2c[nH]c3ccccc23)n1Cc1ccccc1)C1CCNCC1 [compound 54, (R)—N-(1-(5-(2-(1H-indol-3-yl)ethyl)-4-benzyl-4H-1,2,4-triazol-3-yl)-2-(1H-indol-3-yl)ethyl)piperidine-4-carboxamide] |
| 35 nM | COc1ccc(Cn2c(CCc3ccccc3)nnc2[C@@H](Cc2c[nH]c3ccccc23)NC(=O)C2CNCCN2)c(OC)c1 (stereo partly shown) [compound 67] |
| 33 nM | COc1ccc(-n2c(CCc3ccccc3)nnc2[C@@H](Cc2c[nH]c3ccccc23)NC(=O)c2ccccn2)c(OC)c1 [compound 159, N—((R)-2-(1H-indol-3-yl)-1-(4-(2,4-dimethoxyphenyl)-5-phenethyl-4H-1,2,4-triazol-3-yl)ethyl)picolinamide] |
| 18 nM | CC(C)(N)C(=O)N[C@H](Cc1c[nH]c2ccccc12)c1nnc(CCc2c[nH]c3ccccc23)n1Cc1ccccc1 [compound 8, (R)—N-(1-(5-(2-(1H-indol-3-yl)ethyl)-4-benzyl-4H-1,2,4-triazol-3-yl)-2-(1H-indol-3-yl)ethyl)-2-amino-2-methylpropanamide] |
| 18 nM | COc1ccc(Cn2c(CCc3ccccc3)nnc2[C@@H](Cc2c[nH]c3ccccc23)NC(=O)C2CCCCC2)cc1 [compound 53, (R)—N-(1-(4-(4-methoxybenzyl)-5-phenethyl-4H-1,2,4-triazol-3-yl)-2-(1H-indol-3-yl)ethyl)cyclohexanecarboxamide] |
| 9 nM | COc1ccc(Cn2c(CCc3c[nH]c4ccccc34)nnc2[C@@H](Cc2c[nH]c3ccccc23)NC(=O)[C@@H]2CCCN2)cc1 [compound 89, (S)—N—((R)-1-(5-(2-(1H-indol-3-yl)ethyl)-4-(4-methoxybenzyl)-4H-1,2,4-triazol-3-yl)-2-(1H-indol-3-yl)ethyl)pyrrolidine-2-carboxamide] |
| 6 nM | COc1ccc(Cn2c(CCc3c[nH]c4ccccc34)nnc2[C@@H](Cc2c[nH]c3ccccc23)NC(=O)[C@@H]2CCCN2)c(OC)c1 [compound 70, (S)—N—((R)-1-(5-(2-(1H-indol-3-yl)ethyl)-4-(2,4-dimethoxybenzyl)-4H-1,2,4-triazol-3-yl)-2-(1H-indol-3-yl)ethyl)pyrrolidine-2-carboxamide] |
| 5.9 nM | COc1ccc(Cn2c(CCc3ccccc3)nnc2[C@@H](Cc2c[nH]c3ccccc23)NC(=O)C2CCOCC2)cc1 [compound 184, N—((R)-1-(4-(4-methoxybenzyl)-5-phenethyl-4H-1,2,4-triazol-3-yl)-2-(1H-indol-3-yl)ethyl)-tetrahydro-2H-pyran-4-carboxamide] |
